{
  "source": "patent US9823260B2",
  "about": "“Method to increase bioavailability of the delta-opioid receptor for management of pain and neuropsychiatric disorders” (priority 2014, dated 2017)",
  "key": {"[1]": {"tested_on": "PC12 cells expressing SSF-DOR", "experiment": "Fixed cell immunofluorescence assay of DOR localization (intracellular/Golgi retention) in PC12 cells expressing SSF-DOR", "format": "cell-based, rat", "conditions": "for amount of cells exhibiting intracellular DOR (retention) after inhibitor alone / percentage of cells with internal localization of DOR within the Golgi region: no NGF; for amount of cells exhibiting intracellular DOR (retention) after inhibitor alone: Wortmannin 10 μM, Chelerythrine 5 μM, PP2 10 μM, Akt ½ kinase inhibitor 1 μM; for percentage of cells with internal localization of DOR within the Golgi region: PI3K inhibitor 10 μM alone", "from_the_text": "PC12 cells undergo neuronal specific signaling and differentiation in response to NGF.\nTo determine the mechanism regulating NGF-induced DOR retention, pharmacologic inhibition of known NGF-TrkA signaling molecules and quantification of the DOR localization via fixed cell immunofluorescence were employed. […]\nAlternatively, it was chosen to use the neuroendocrine PC12 cell line as the model system.\nTo confirm that the NGF-induced internal localization is retention and not only due to increased protein production in response to NGF, the mechanistic evaluation was continued in the presence of Cycloheximide (CHX, 3 μg/mL) to inhibit new protein synthesis. […] Again referring to FIG. 3, for the evaluation of required downstream signaling targets, pharmacologic inhibition of TrkA effectors was performed to determine the pathway required for NGF-induced retention of DOR.\nIt was therefore sought to determine if inhibition of PI3K via treatment with Wortmannin alone was sufficient to induce intracellular retention of DOR using a fixed cell immunofluorescence assay."}, "[2]": {"tested_on": "DOR", "experiment": "cAMP EPAC FRET biosensor assay of DOR signaling in live PC12 cells", "format": "cell-based, rat"}, "[3]": {"tested_on": "SSF-DOR expressing PC12 cells", "experiment": "Fluorescence antibody internalization assay of the surface pool of DOR", "format": "cell-based, rat", "conditions": "1-hour treatment; NGF 100 ng/mL, Wortmannin 10 μM, LY294002 10 μM, 740Y^PDGFR 25 μg/mL, DADLE 10 μM", "description": "To eliminate the possibility that surface localized DOR was being actively internalized following PI3K inhibition, a fluorescence antibody internalization assay was performed in combination with pharmacologic inhibition of PI3K. SSF-DOR expressing PC12 cells were incubated with a cell-impermeable primary M1-Alexa 647 conjugated antibody to label the surface pool of receptors. The cells were treated with pharmacologic agents for 1 hour as in previous experiments, and receptor internalization was determined by adding a cell-impermeable secondary Alexa-488 conjugated antibody that recognizes the M1 primary antibody. The amount of internalization is quantified using a Pearson's Correlation Coefficient to determine the colocalization of the primary and secondary antibodies."}, "[4]": {"tested_on": "primary Trigeminal Ganglion (TG) neurons transfected with SSF-DOR", "experiment": "Fixed cell immunofluorescence of DOR localization in primary Trigeminal Ganglion neurons transfected with SSF-DOR", "format": "cell-based, mice", "from_the_text": "To begin the example, confirmation that SSF-DOR was internally retained and localized with the Golgi complex in primary Trigeminal Ganglion (TG) sensory neurons was desired. First, primary TGs from adult mice were isolated and cultured. The SSF-DOR DNA construct was then transiently transfected into cultured TGs for subsequent localization analysis. Using a fixed-cell immunofluorescence assay, the location of SSF-DOR with an Alexa-488 conjugated anti-Flag M1 antibody was visualized, and the receptor signal was compared to an antibody against the Golgi marker GPP130. […] PC12 cells expressing SSF-DOR have a membrane localized expression pattern with little to no Golgi colocalization when analyzed via fixed cell fluorescence confocal microscopy. […]\nBy using the neuroendocrine PC12 cell line as our model system, PTEN inhibition was identified as a tool to prevent the internal retention of DOR following NGF administration. […] Graphical quantification of the percentage of DOR localized within the Golgi compared to the total cell DOR fluorescence is shown in FIG. 9 (top), and the Pearson's Correlation Coefficient between the DOR fluorescence and the GPP130 Golgi fluorescence in FIG. 9 (bottom)."}, "[5]": {"tested_on": "SSF-MOR expressed in PC12 cells", "experiment": "Fixed cell immunofluorescence assay of MOR localization in PC12 cells expressing SSF-MOR", "format": "cell-based, rat", "conditions": "1-hour; NGF 100 ng/mL, Wortmannin 10 μM, LY294002 10 μM", "description": "Previously, it was shown that the NGF-induced retention is specific to DOR and has minimal effect on MOR^37. It was therefore asked if retention of DOR via PI3K inhibition was also specific to DOR. To determine this specificity, the sufficiency of NGF, and PI3K inhibition by Wortmannin or LY294002, to promote intracellular retention of SSF-MOR expressed in PC12 cells was evaluated using the fixed cell immunofluorescence assay. Under basal no treatment conditions, SSF-MOR was prominently localized to the cell surface. Upon NGF (100 ng/mL), Wortmannin (10 μM), or LY294002 (10 μM) treatment for 1-hour, the majority of the SSF-MOR signal was localization to the cell surface with minimal overlap within the Golgi region."}, "[6]": {"conditions": "with NGF and CHX, Y-27632 5 μM, U0126 10 μM, Akt1/2 Kinase Inhibitor 500 nM, U73122 10 μM, Chelerythrine 10 μM, PP2 500 nM"}},
  "note": "Read-outs that look alike come from different tables or passages of the source.",
  "data": [
    {"compound": "O=C(NCc1c(F)cccc1F)c1sccc1OCc1ccc(Cl)cc1Cl", "note": "[AS1938909]", "values": [
      {"measurement": "DOR retention in combination with NGF versus NGF treatment alone", "setting": "[1]", "value": "not significantly different"},
      {"measurement": "percentage of cells exhibiting Golgi localized DOR and percentage of DOR fluorescence within the Golgi", "setting": "[1]; SHIP2 inhibitor AS1938909 10 μM only", "value": "significant increase"}
    ]},
    {"compound": "O=c1[nH]c2ccccc2n1C1CCN(Cc2ccc(-c3nc4cc5nc[nH]c5cc4nc3-c3ccccc3)cc2)CC1", "note": "[Akt1/2 Kinase Inhibitor]", "values": [
      {"measurement": "amount of cells exhibiting intracellular DOR (retention) after inhibitor alone", "setting": "[1]", "value": "did not significantly increase"},
      {"measurement": "effect on NGF-induced retention of DOR", "setting": "[1]; [6]", "value": "no statistical effect"}
    ]},
    {"compound": "C[C@@H]1C[C@@H]([C@H](O)CC2CC(=O)NC(=O)C2)C(=O)[C@@H](C)C1", "note": "[CHX, Cycloheximide]", "values": [
      {"measurement": "percentage of SSF-DOR expressing PC12 cells with internal localization of DOR", "setting": "[1]; CHX 3 μg/mL alone, 1 hour", "value": 16, "unit": "%"}
    ]},
    {"compound": "COc1ccc2c(c[n+](C)c3c4cc5c(cc4ccc23)OCO5)c1OC", "note": "[Chelerythrine]", "values": [
      {"measurement": "amount of cells exhibiting intracellular DOR (retention) after inhibitor alone", "setting": "[1]", "value": "did not significantly increase"},
      {"measurement": "effect on NGF-induced retention of DOR", "setting": "[1]; [6]", "value": "no statistical effect"}
    ]},
    {"compound": "CC(C)C[C@@H](NC(=O)[C@H](Cc1ccccc1)NC(=O)CNC(=O)[C@@H](C)NC(=O)[C@@H](N)Cc1ccc(O)cc1)C(=O)O", "note": "[DADLE]", "values": [
      {"measurement": "inhibition of Forskolin induced cAMP by DADLE", "setting": "[2]; 1 hour NGF pretreatment, Forskolin 5 μM, DADLE 10 μM", "value": 81, "unit": "%"},
      {"measurement": "colocalization of primary and secondary antibody (Pearson's Correlation Coefficient; internalization of surface DOR)", "setting": "[3]", "value": "minimal antibody colocalization"}
    ]},
    {"compound": "O=c1cc(N2CCOCC2)oc2c(-c3ccccc3)cccc12", "note": "[LY294002]", "values": [
      {"measurement": "percentage of cells with internal localization of DOR within the Golgi region", "setting": "[1]", "value": 88, "unit": "%"}
    ]},
    {"compound": "CC(C)(C)n1nc(-c2ccc(Cl)cc2)c2c(N)ncnc21", "note": "[PP2]", "values": [
      {"measurement": "amount of cells exhibiting intracellular DOR (retention) after inhibitor alone", "setting": "[1]", "value": "did not significantly increase"},
      {"measurement": "effect on NGF-induced retention of DOR", "setting": "[1]; [6]", "value": "no statistical effect"}
    ]},
    {"compound": "CC(C)(C)C(=O)Nc1ccc2c(c1)C(=O)C(=O)c1ccccc1-2", "note": "[SF1670]", "values": [
      {"measurement": "percentage of DOR fluorescence localized with the Golgi compared to the total DOR fluorescence", "setting": "[4]; SF1670 alone and in combination with NGF", "value": "decreased significantly"},
      {"measurement": "effect of PTEN inhibitor on NGF-induced retention of DOR", "setting": "[1]; with NGF 100 ng/mL, bpV(HOptic) 10 μM", "value": "prevented NGF-induced retention of DOR in a dose dependent manner"},
      {"measurement": "inhibition of cAMP upon DADLE treatment after CNA blockade and PTEN inhibition", "setting": "[2]; NGF pre-treatment, CNA blockade, SF1670 10 μM, Forskolin, DADLE", "value": 80, "unit": "%"},
      {"measurement": "increase of cAMP inhibition over that obtained after CNA alone", "setting": "[2]; SF1670 10 μM after CNA versus CNA alone", "value": 61, "unit": "%"}
    ]},
    {"compound": "N#CC(=C(/N)Sc1ccccc1N)/C(C#N)=C(\\N)Sc1ccccc1N", "note": "[U0126]", "values": [
      {"measurement": "effect on NGF-induced retention of DOR", "setting": "[1]", "value": "no statistical effect"}
    ]},
    {"compound": "COc1ccc2c(c1)CC[C@@H]1[C@@H]2CC[C@]2(C)[C@@H](NCCCCCCN3C(=O)C=CC3=O)CC[C@@H]12", "note": "[U73122]", "values": [
      {"measurement": "effect on NGF-induced retention of DOR", "setting": "[1]; [6]", "value": "no statistical effect"}
    ]},
    {"compound": "COC[C@H]1OC(=O)c2coc3c2[C@@]1(C)C1=C(C3=O)[C@@H]2CCC(=O)[C@@]2(C)C[C@H]1OC(C)=O", "note": "[Wortmannin]", "values": [
      {"measurement": "percentage of cells with internal localization of DOR", "setting": "[1]; NGF 100 ng/ml and Wortmannin 10 μM", "value": 87, "unit": "%"},
      {"measurement": "percentage of cells with internal localization of DOR within the Golgi region", "setting": "[1]", "value": 88, "unit": "%"},
      {"measurement": "percentage of cells with intracellular retention of DOR", "setting": "[1]; Wortmannin 10 μM in combination with NGF, 1-hour CHX chase", "value": 97, "unit": "%"}
    ]},
    {"compound": "C[C@@H](N)[C@H]1CC[C@H](C(=O)Nc2ccncc2)CC1", "note": "[Y-27632]", "values": [
      {"measurement": "effect on NGF-induced retention of DOR", "setting": "[1]; [6]", "value": "no statistical effect"}
    ]},
    {"compound": "NGF: Nerve Growth Factor; initiates internal retention of DOR in PC12 cells via TrkA", "values": [
      {"measurement": "change in intracellular retention of MOR (percentage of cells with Golgi localized MOR and percentage of MOR fluorescence within the Golgi)", "setting": "[5]", "value": "non-significant change"},
      {"measurement": "colocalization between DOR and GPP130 Golgi marker (Pearson's Correlation Coefficient)", "setting": "[4]; NGF treatment", "value": "significant increase in colocalization"},
      {"measurement": "percentage of cells with internal localization of DOR colocalized with the Golgi", "setting": "[1]; NGF 100 ng/mL, 1 hour (FIG. 3 right)", "value": 80, "unit": "%"},
      {"measurement": "percentage of transfected cells with internal localization of DOR", "setting": "[1]; NGF 100 ng/mL, 1 hour, no CHX", "value": 90, "unit": "%"},
      {"measurement": "percentage of cells imaged with internal localization of DOR", "setting": "[1]; NGF added 1 hour before CHX addition and chased for 1 hour", "value": 80, "unit": "%"},
      {"measurement": "colocalization of primary and secondary antibody (Pearson's Correlation Coefficient; internalization of surface DOR)", "setting": "[3]", "value": "very strong colocalization"}
    ]}
  ]
}
